Read-outs that look alike come from different tables or passages of the source.
Experiments:
[1] = tested on: HAP1 MTAP-deleted cell line; assay: Viability assay, MTAP-deleted cell line; assay type: cell-based; conditions: Homo sapiens, HAP1, viability, HAP1 MTAP-deleted cell line; read-out: HAP1 MTAP deleted viability
Text: Table 1 additionally indicates IC50 values in a viability assay for the MTAP-deleted cell line (column 10), indicating the effect of treatment with compound on cell survival.

[2] = tested on: HAP1 MTAP-deleted cell line; assay: SDMA in-cell western assay, HAP1 MTAP-deleted; assay type: cell-based; conditions: for IC50: Homo sapiens, HAP1, SDMA in-cell western, HAP1 MTAP-deleted, read-out: HAP 1 MTAP deleted IC50; for MTAP intact/deleted ratio: IC50 ratio HAP1 MTAP-intact / HAP1 MTAP-deleted, SDMA in-cell western
How it was run: (§1)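 Compounds were tested in HAP1 cells differing only in MTAP status (endogenous expression versus null). Cellular SDMA levels were then measured by in-cell western, giving an IC50 in each background.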

[3] = tested on: HAP1 MTAP-intact cell line; assay: SDMA in-cell western assay, HAP1 MTAP-intact; assay type: cell-based; conditions: HAP1 MTAP-intact, read-out: MTAP HAP1 intact IC50
How it was run: as §1

PRMT5 [4] = biological target: T1, PRMT5 (Homo sapiens, UniProt O14744); assay: PRMT5 biochemical IC50 assay with no cofactor; conditions: PRMT5, no cofactor; read-out: No Cofactor/ rel IC50
T1 construct: purchased Viva (custom protein)
Text: Table 1 indicates IC50 values (μM) against PRMT5 for exemplary compounds in the presence of SAM as cofactor, with no cofactor, and with MTA as cofactor, respectively (columns 4-6). […] Ki values can be calculated from the IC50 values as described in the Examples section. As detailed in the Examples section, for the assay performed in the presence of SAM, IC50=Ki×1.5 (Ki=IC50/1.5).

PRMT5 [5] = biological target: T1, PRMT5; assay: PRMT5 biochemical IC50 assay with SAM as cofactor; conditions: PRMT5, SAM as cofactor; read-out: SAM IC50
PRMT5 [6] = biological target: T1, PRMT5; assay: PRMT5 biochemical IC50 assay with MTA as cofactor; conditions: PRMT5, MTA as cofactor; read-out: MTA IC50
[7] = Homo sapiens, HAP1, SDMA in-cell western

T1 sequence (O14744 whole entry): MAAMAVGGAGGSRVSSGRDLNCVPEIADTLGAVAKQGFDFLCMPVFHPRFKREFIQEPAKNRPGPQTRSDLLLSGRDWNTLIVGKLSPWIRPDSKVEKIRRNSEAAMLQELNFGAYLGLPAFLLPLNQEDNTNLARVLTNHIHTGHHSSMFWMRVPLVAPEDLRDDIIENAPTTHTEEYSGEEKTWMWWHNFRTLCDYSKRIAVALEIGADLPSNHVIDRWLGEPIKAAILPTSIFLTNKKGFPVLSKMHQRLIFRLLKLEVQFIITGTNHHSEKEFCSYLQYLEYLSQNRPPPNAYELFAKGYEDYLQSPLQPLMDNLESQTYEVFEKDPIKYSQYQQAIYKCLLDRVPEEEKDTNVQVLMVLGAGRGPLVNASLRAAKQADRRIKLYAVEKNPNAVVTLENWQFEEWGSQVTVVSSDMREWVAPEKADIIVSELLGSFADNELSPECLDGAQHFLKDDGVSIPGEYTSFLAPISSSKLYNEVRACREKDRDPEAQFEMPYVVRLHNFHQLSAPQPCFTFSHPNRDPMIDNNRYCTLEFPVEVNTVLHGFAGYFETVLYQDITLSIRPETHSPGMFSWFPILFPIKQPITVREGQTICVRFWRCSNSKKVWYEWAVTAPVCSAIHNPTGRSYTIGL
T1 sequence (Q9BQA1 whole entry partner): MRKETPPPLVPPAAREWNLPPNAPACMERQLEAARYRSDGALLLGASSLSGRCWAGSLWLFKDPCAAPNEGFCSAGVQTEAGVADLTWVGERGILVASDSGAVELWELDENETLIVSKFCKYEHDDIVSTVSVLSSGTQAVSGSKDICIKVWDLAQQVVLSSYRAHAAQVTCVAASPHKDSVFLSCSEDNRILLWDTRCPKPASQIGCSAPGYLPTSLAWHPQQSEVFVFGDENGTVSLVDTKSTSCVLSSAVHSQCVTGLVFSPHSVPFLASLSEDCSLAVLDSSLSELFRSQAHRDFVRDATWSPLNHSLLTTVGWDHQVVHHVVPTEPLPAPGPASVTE

For `CCc1cc(NC(=O)C(=O)N2C[C@@H](C)CC[C@@H]2c2cc(Cl)cc(OCCN(C)C)c2)cnc1N` [Compound 1247, N-(6-amino-5-ethylpyridin-3-yl)-2-((2R,5S)-2-(3-chloro-5-(2-(dimethylamino)ethoxy)phenyl)-5-methylpiperidin-1-yl)-2-oxoacetamide], the IC50 [1] was < 1000 nM, the IC50 [2] was < 100 nM and the “MTAP intact/deleted ratio” value [2] was “A (an IC50 ratio greater than or equal to 10 fold)”. For the same compound, the IC50 [3, 7] was 100 to 1000 nM, the IC50 (PRMT5 [4]) was < 50 nM and the IC50 (PRMT5 [5]) was < 50 nM. For the same compound, the IC50 (PRMT5 [6]) was < 50 nM.

`CCc1cc(NC(=O)C(=O)N2C[C@@H](C)CC[C@@H]2c2ccc3sc(CCN4CCOCC4)nc3c2)cnc1N` [Compound 1248, N-(6-amino-5-ethylpyridin-3-yl)-2-((2R,5S)-5-methyl-2-(2-(2-morpholinoethyl)benzo[d]thiazol-5-yl)piperidin-1-yl)-2-oxoacetamide] was tested, and the IC50 [1] was < 1000 nM, the IC50 [2] was < 100 nM and the “MTAP intact/deleted ratio” value [2] was “A (an IC50 ratio greater than or equal to 10 fold)”. The IC50 [3, 7] was 100 to 1000 nM, the IC50 (PRMT5 [4]) was < 50 nM and the IC50 (PRMT5 [5]) was < 50 nM. For the same compound, the IC50 (PRMT5 [6]) was < 50 nM.

In the case of `CCc1cc(NC(=O)C(=O)N2C[C@@H](C)CC[C@@H]2c2ccc3sc(C4CCN(CC)CC4)nc3c2)cnc1N` [Compound 1252, N-(6-amino-5-ethylpyridin-3-yl)-2-((2R,53)-2-(2-(1-ethylpiperidin-4-yl)benzo[d]thiazol-5-yl)-5-methylpiperidin-1-yl)-2-oxoacetamide], the IC50 [1] is reported as < 1000 nM, the IC50 [2] is reported as < 100 nM and the “MTAP intact/deleted ratio” value [2] is reported as “A (an IC50 ratio greater than or equal to 10 fold)”. The IC50 [3, 7] was < 100 nM, the IC50 (PRMT5 [4]) was < 50 nM and the IC50 (PRMT5 [5]) was 50 to 500 nM. For the same compound, the IC50 (PRMT5 [6]) was < 50 nM.

In the case of `CCc1cc(NC(=O)C(=O)N2C[C@@H](C)CC[C@@H]2c2ccc3sc([C@@H]4CCN(C)C(=O)C4)nc3c2)cnc1N` [Compound 1256, N-(6-amino-5-ethyl-3-pyridyl)-2-[(2R,5S)-5-methyl-2-[2-(1-methyl-2-oxo-4-piperidyl)-1,3-benzothiazol-5-yl]-1-piperidyl]-2-oxo-acetamide], the IC50 [1] is reported as < 1000 nM, the IC50 [2] is reported as < 100 nM and the “MTAP intact/deleted ratio” value [2] is reported as “A (an IC50 ratio greater than or equal to 10 fold)”. For the same compound, the IC50 [3, 7] was < 100 nM, the IC50 (PRMT5 [4]) was < 50 nM and the IC50 (PRMT5 [5]) was 50 to 500 nM. The IC50 (PRMT5 [6]) was < 50 nM.

With `COc1ncc(NC(=O)C(=O)N2C[C@@H](C)CC[C@@H]2c2ccc3sc(C4CN(C)C4)nc3c2)cc1C(N)=O` [Compound 1257] the IC50 [1] was < 1000 nM, the IC50 [2] was < 100 nM and the “MTAP intact/deleted ratio” value [2] was “A (an IC50 ratio greater than or equal to 10 fold)”. For the same compound, the IC50 [3, 7] was 100 to 1000 nM, the IC50 (PRMT5 [4]) was < 50 nM and the IC50 (PRMT5 [5]) was < 50 nM. For the same compound, the IC50 (PRMT5 [6]) was < 50 nM.

For `CCc1cc(NC(=O)C(=O)N2C[C@@H](C)CC[C@@H]2c2ccc3sc([C@H]4C[C@@H](C)N(C)[C@@H](C)C4)nc3c2)cnc1N` [Compound 1261, N-(6-amino-5-ethylpyridin-3-yl)-2-((2R,5S)-5-methyl-2-(2-((2R,4r,6S)-1,2,6-trimethylpiperidin-4-yl)benzo[d]thiazol-5-yl)piperidin-1-yl)-2-oxoacetamide], the IC50 [1] was < 1000 nM, the IC50 [2] was < 100 nM and the “MTAP intact/deleted ratio” value [2] was “A (an IC50 ratio greater than or equal to 10 fold)”. For the same compound, the IC50 [3, 7] was < 100 nM, the IC50 (PRMT5 [4]) was < 50 nM and the IC50 (PRMT5 [5]) was < 50 nM. The IC50 (PRMT5 [6]) was < 50 nM.

`CCc1cc(NC(=O)C(=O)N2C[C@@H](C)CC[C@@H]2c2ccc3sc(CCCN(C)C)nc3c2)cnc1N` [Compound 1262, N-(6-amino-5-ethylpyridin-3-yl)-2-((2R,5S)-2-(2-(3-(dimethylamino)propyl)benzo[d]thiazol-5-yl)-5-methylpiperidin-1-yl)-2-oxoacetamide] was tested, and the IC50 [1] was < 1000 nM, the IC50 [2] was < 100 nM and the “MTAP intact/deleted ratio” value [2] was “A (an IC50 ratio greater than or equal to 10 fold)”. For the same compound, the IC50 [3, 7] was < 100 nM, the IC50 (PRMT5 [4]) was < 50 nM and the IC50 (PRMT5 [5]) was < 50 nM. For the same compound, the IC50 (PRMT5 [6]) was < 50 nM.

With `C[C@H]1CC[C@H](c2ccc3c(c2)CCN(C)C3)N(C(=O)C(=O)Nc2cnc(N)c(C3CC3)c2)C1` [Compound 1264, N-(6-Amino-5-cyclopropyl-3-pyridyl)-2-[(2R,5S)-5-methyl-2-(2-methyl-3,4-dihydro-1H-isoquinolin-6-yl)-1-piperidyl]-2-oxo-acetamide] the IC50 [1] was < 1000 nM, the IC50 [2] was < 100 nM and the “MTAP intact/deleted ratio” value [2] was “A (an IC50 ratio greater than or equal to 10 fold)”. The IC50 [3, 7] was 100 to 1000 nM, the IC50 (PRMT5 [4]) was < 50 nM and the IC50 (PRMT5 [5]) was 50 to 500 nM. The IC50 (PRMT5 [6]) was < 50 nM.

In the case of `Cc1cc(NC(=O)C(=O)N2C[C@@H](C)CC[C@@H]2c2ccc3sc(C4COC4)nc3c2)cnc1N` [Compound 1266, N-(6-amino-5-methylpyridin-3-yl)-2-((2R,5S)-5-methyl-2-(2-(oxetan-3-yl)benzo[d]thiazol-5-yl)piperidin-1-yl)-2-oxoacetamide], the IC50 [1] is reported as < 1000 nM, the IC50 [2] is reported as < 100 nM and the “MTAP intact/deleted ratio” value [2] is reported as “A (an IC50 ratio greater than or equal to 10 fold)”. For the same compound, the IC50 [3, 7] was < 100 nM, the IC50 (PRMT5 [4]) was < 50 nM and the IC50 (PRMT5 [5]) was 50 to 500 nM. The IC50 (PRMT5 [6]) was < 50 nM.

For `CCc1cc(NC(=O)C(=O)N2C[C@@H](C)CC[C@@H]2c2ccc3sc(N4CCOCC4)nc3c2)cnc1N` [Compound 1267, N-(6-amino-5-ethylpyridin-3-yl)-2-((2R,5S)-5-methyl-2-(2-morpholinobenzo[d]thiazol-5-yl)piperidin-1-yl)-2-oxoacetamide], the IC50 [1] was < 1000 nM, the IC50 [2] was < 100 nM and the “MTAP intact/deleted ratio” value [2] was “A (an IC50 ratio greater than or equal to 10 fold)”. For the same compound, the IC50 [3, 7] was 100 to 1000 nM, the IC50 (PRMT5 [4]) was < 50 nM and the IC50 (PRMT5 [5]) was 50 to 500 nM. For the same compound, the IC50 (PRMT5 [6]) was < 50 nM.

In the case of `Cc1cc(NC(=O)C(=O)N2C[C@@H](C)CC[C@@H]2c2ccc3sc(C4CCN(C5COC5)CC4)nc3c2)cnc1N` [Compound 1268, N-(6-amino-5-methylpyridin-3-yl)-2-((2R,5S)-5-methyl-2-(2-(1-(oxetan-3-yl)piperidin-4-yl)benzo[d]thiazol-5-yl)piperidin-1-yl)-2-oxoacetamide], the IC50 [1] is reported as < 1000 nM, the IC50 [2] is reported as < 100 nM and the “MTAP intact/deleted ratio” value [2] is reported as “A (an IC50 ratio greater than or equal to 10 fold)”. For the same compound, the IC50 [3, 7] was 100 to 1000 nM, the IC50 (PRMT5 [4]) was < 50 nM and the IC50 (PRMT5 [5]) was < 50 nM. For the same compound, the IC50 (PRMT5 [6]) was < 50 nM.

For `CCc1cc(NC(=O)C(=O)N2C[C@@H](C)CC[C@@H]2c2ccn3cc(C4CCN(C)CC4)nc3c2)cnc1N` [Compound 1274, N-(6-amino-5-ethylpyridin-3-yl)-2-((2R,5S)-5-methyl-2-(2-(1-methylpiperidin-4-yl)imidazo[1,2-a]pyridin-7-yl)piperidin-1-yl)-2-oxoacetamide], the IC50 [1] was < 1000 nM, the IC50 [2] was < 100 nM and the “MTAP intact/deleted ratio” value [2] was “A (an IC50 ratio greater than or equal to 10 fold)”. For the same compound, the IC50 [3, 7] was 100 to 1000 nM, the IC50 (PRMT5 [4]) was < 50 nM and the IC50 (PRMT5 [5]) was 50 to 500 nM. The IC50 (PRMT5 [6]) was < 50 nM.

For `CCc1cc(NC(=O)C(=O)N2C[C@@H](C)CC[C@@H]2c2ccc3sc([C@H]4CN(C)CCO4)nc3c2)cnc1N` [Compound 1275, N-(6-amino-5-ethylpyridin-3-yl)-2-((2R,5S)-5-methyl-2-(2-(4-methylmorpholin-2-yl)benzo[d]thiazol-5-yl)piperidin-1-yl)-2-oxoacetamide], the IC50 [1] was < 1000 nM, the IC50 [2] was < 100 nM and the “MTAP intact/deleted ratio” value [2] was “A (an IC50 ratio greater than or equal to 10 fold)”. The IC50 ([3]; SDMA in-cell western) was 100 to 1000 nM, the IC50 (PRMT5 [4]) was < 50 nM and the IC50 (PRMT5 [5]) was 50 to 500 nM. For the same compound, the IC50 (PRMT5 [6]) was < 50 nM.
